Consider 36 compounds from US12617814B2, “Neuroactive steroids and methods of use thereof” (Sage Therapeutics, LLC, priority 2013, dated 2026).

Molecules are shown by their SMILES.

Sequence of NMDA receptor (GRIN1/GRIN2A) (Q12879 23-1464, other chains not shown): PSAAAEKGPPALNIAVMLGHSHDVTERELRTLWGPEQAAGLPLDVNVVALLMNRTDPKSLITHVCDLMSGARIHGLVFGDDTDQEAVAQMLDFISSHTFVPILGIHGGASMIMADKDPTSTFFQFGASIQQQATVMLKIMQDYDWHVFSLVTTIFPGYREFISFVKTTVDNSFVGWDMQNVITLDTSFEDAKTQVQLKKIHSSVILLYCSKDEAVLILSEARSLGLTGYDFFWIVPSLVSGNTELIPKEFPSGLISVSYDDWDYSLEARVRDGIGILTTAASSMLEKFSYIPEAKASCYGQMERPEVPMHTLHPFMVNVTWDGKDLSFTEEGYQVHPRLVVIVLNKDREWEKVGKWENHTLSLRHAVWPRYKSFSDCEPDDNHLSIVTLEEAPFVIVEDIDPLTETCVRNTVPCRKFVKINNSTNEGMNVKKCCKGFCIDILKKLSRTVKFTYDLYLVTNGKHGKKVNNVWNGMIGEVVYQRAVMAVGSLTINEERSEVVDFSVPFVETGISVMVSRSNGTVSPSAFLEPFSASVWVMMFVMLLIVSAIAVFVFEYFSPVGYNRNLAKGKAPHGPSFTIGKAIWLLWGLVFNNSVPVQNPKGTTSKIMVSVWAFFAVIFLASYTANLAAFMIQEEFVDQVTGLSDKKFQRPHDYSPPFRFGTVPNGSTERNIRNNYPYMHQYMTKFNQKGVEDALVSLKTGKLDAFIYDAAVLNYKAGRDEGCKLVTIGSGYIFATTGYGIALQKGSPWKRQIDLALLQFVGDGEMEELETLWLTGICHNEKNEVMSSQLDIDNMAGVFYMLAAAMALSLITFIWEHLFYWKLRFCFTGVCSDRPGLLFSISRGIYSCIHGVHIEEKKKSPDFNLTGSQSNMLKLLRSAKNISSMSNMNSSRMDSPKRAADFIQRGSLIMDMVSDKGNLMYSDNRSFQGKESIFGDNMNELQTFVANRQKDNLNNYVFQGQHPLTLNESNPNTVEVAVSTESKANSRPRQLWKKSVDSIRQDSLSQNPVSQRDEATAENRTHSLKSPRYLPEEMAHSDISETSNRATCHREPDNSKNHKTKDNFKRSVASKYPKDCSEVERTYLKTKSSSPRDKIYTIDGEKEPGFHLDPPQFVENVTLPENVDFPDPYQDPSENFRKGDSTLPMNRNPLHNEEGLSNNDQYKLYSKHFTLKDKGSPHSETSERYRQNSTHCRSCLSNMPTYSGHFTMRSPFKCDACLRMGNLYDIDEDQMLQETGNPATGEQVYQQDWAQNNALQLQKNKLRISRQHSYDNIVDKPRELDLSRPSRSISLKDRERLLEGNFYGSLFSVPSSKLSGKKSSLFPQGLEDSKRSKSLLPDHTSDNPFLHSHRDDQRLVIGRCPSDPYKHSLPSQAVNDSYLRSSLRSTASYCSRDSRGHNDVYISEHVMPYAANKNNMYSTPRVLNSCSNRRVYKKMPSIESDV

The experiment has as its target NMDA receptor (GRIN1/GRIN2A) (Homo sapiens, UniProt Q05586+Q12879). Nature of the experiment: NMDA potentiation, two electrode voltage clamp (TEVC) of Xenopus oocytes expressing NMDA receptor. Type of experiment: cell-based. To be noted: 10 μM compound, 3 μM Glutamate and Glycine. The protocol: NMDA potentiation was assessed using either whole cell patch clamp of mammalian cells which expressed NMDA receptors, or using two-electrode voltage clamp (TEVC) of Xenopus Laevis oocytes expressing NMDA receptors.
The Two Electrode Voltage Clamp (TEVC) technique was used to investigate the effects of compounds (10 μM) on the NMDA receptor (GRIN1/GRIN2A) expressed in Xenopus oocytes. Glutamate/Glycine peak and steady-state currents were recorded from oocytes that expressed the NMDA receptor and the modulatory effects of the test items on these currents were investigated.
Ovaries were harvested from Xenopus Laevis females that had been deeply anesthetized by cooling at 4° C. and immersion in Tricaine methanesulfonate (MS-222 at a concentration of 150 mg/L) in sodium bicarbonate (300 mg/L). Once anesthetized the animal was decapitated and pithed following the rules of animal rights from the Geneva canton. A small piece of ovary was isolated for immediate preparation while the remaining part was placed at 4° C. in a sterile Barth solution containing in mM NaCl 88, KCl 1, NaHCO3 2.4, HEPES 10, MgSO4·7H2O 0.82, Ca(NO3)2·4H2O 0.33, CaCl2·6H2O 0.41, at pH 7.4, and supplemented with 20 μg/ml of kanamycin, 100 unit/ml penicillin and 100 μg/ml streptomycin. All recordings were performed at 18° C. and cells were super-fused with medium containing in mM: NaCl 82.5, KCl 2.5, HEPES 5, CaCl2·2H2O, ·6H2O 1, pH 7.4.
Oocytes were injected with either cDNAs encoding for the human GRIN1 and GRIN2A subunits, using a proprietary automated injection device (Hogg et al., J. Neurosci. Methods, (2008) 169: 65-75) and receptor expression was assessed using electrophysiology at least two days later. The ratio of cDNA injection for GRIN1 and GRIN2A was 1:1. Electrophysiological recordings were made using an automated process equipped with standard TEVC and data were captured and analyzed using a proprietary data acquisition and analysis software running under Matlab (Mathworks Inc.). The membrane potential of the oocytes was maintained at −80 mV throughout the experiments. To explore the effects of proprietary compounds, currents were evoked by applying 3 μM Glutamate and […] Glycine for 10 s. Oocytes were then washed for 90 s before being exposed to the test article at a concentration of 10 μM for 120 s. Following this, 3 μM Glutamate and […] Glycine were immediately reapplied for 10 s. Potentiation of both the peak current and the steady state current was assessed. For statistical analysis values were computed either with Excel (Microsoft) or Matlab (Mathworks Inc.). To obtain mean measurements with standard deviations, all experiments were carried out using at least three cells.
Glutamate was prepared as a concentrated stock solution ([…]) in water and then diluted in the recording medium to obtain the desired test concentration. Glycine was prepared as a stock solution at 1 M in water. Compounds were prepared as stock solution ([…]) in DMSO and then diluted in the recording medium to obtain the desired test concentration.
(Two-electrode voltage clamp holds a large cell at a set potential and records current.)
Consider `CC[C@]1(O)CC[C@@]2(C)[C@@H](CC[C@@H]3[C@@H]2CC[C@]2(C)[C@@H]([C@H](C)CC[C@H](O)C(F)(F)F)CC[C@@H]32)C1` [Compound 2-10], for which the activation at 10 µM lay within 10 to 50%.

As for `C[C@H](CCC(C)(O)CCO)[C@H]1CC[C@H]2[C@@H]3CC=C4C[C@@](C)(O)CC[C@]4(C)[C@H]3CC[C@]12C` (stereo partly drawn) [Compound 10-13], the activation at 10 µM was in the range of 50 to 100%.

Turning to `COCCC(C)(O)CC[C@@H](C)[C@H]1CC[C@H]2[C@@H]3CC=C4C[C@@](C)(O)CC[C@]4(C)[C@H]3CC[C@]12C` (stereo partly drawn) [Compound 10-14], the activation at 10 µM is 50 to 100%.

For `CC[C@@](C)(O)CC[C@@H](C)[C@H]1CC[C@H]2[C@@H]3CC[C@H]4C[C@@](C)(O)CC[C@]4(C)[C@H]3CC[C@]12C` [Compound 4-9], the activation at 10 µM was in the range of 10 to 50%.

Take `C#C[C@](C)(O)CC[C@@H](C)[C@H]1CC[C@H]2[C@@H]3CC=C4C[C@@](C)(O)CC[C@]4(C)[C@H]3CC[C@]12C` [Compound 10-3]: the activation at 10 µM fell in the range of 10 to 50%.

As to `C[C@H](CCC(C)(O)C(F)(F)F)[C@H]1CC[C@H]2[C@@H]3CC[C@H]4C[C@@](C)(O)CC[C@]4(C)[C@H]3CC[C@]12C` (stereo partly drawn) [Compound 3-3], the activation at 10 µM fell in the range of 50 to 100%.

On to `CCCC[C@@](C)(O)CC[C@@H](C)[C@H]1CC[C@H]2[C@@H]3CC[C@H]4C[C@@](C)(O)CC[C@]4(C)[C@H]3CC[C@]12C` [Compound 7-7], for which the activation at 10 µM was 10 to 50%.

Consider `C#C[C@@](C)(O)CC[C@@H](C)[C@H]1CC[C@H]2[C@@H]3CC=C4C[C@@](C)(O)CC[C@]4(C)[C@H]3CC[C@]12C` [Compound 10-4], for which the activation at 10 µM was in the range of 10 to 50%.

Take `CC(C)[C@@](C)(O)CC[C@@H](C)[C@H]1CC[C@H]2[C@@H]3CC[C@H]4C[C@@](C)(O)CC[C@]4(C)[C@H]3CC[C@]12C` [Compound 8-5]: the activation at 10 µM lay within 10 to 50%.

Turning to `C[C@H](CC[C@@](C)(O)CCO)[C@H]1CC[C@H]2[C@@H]3CC[C@H]4C[C@@](C)(O)CC[C@]4(C)[C@H]3CC[C@]12C` [Compound 10-16], the activation at 10 µM was in the range of 10 to 50%.

In the case of `C[C@H](CC[C@@](C)(O)CCCO)[C@H]1CC[C@H]2[C@@H]3CC=C4C[C@@](C)(O)CC[C@]4(C)[C@H]3CC[C@]12C` [Compound 6-9], the activation at 10 µM was 10 to 50%.

As to `C[C@H](CCC(C)(O)C1CC1)[C@H]1CC[C@H]2[C@@H]3CC[C@H]4C[C@@](C)(O)CC[C@]4(C)[C@H]3CC[C@]12C` (stereo partly drawn) [Compound 9-6], the activation at 10 µM was 50 to 100%.

`C[C@H](CCC(C)(O)CCCO)[C@H]1CC[C@H]2[C@@H]3CC=C4C[C@@](C)(O)CC[C@]4(C)[C@H]3CC[C@]12C` (stereo partly drawn) [Compound 6-3]: the activation at 10 µM is 50 to 100%.

Regarding `COCC[C@@](C)(O)CC[C@@H](C)[C@H]1CC[C@H]2[C@@H]3CC=C4C[C@@](C)(O)CC[C@]4(C)[C@H]3CC[C@]12C` [Compound 10-23], the activation at 10 µM was 10 to 50%.

Consider `CC[C@]1(O)CC[C@@]2(C)C(=CC[C@H]3[C@@H]4CC[C@H]([C@H](C)CCC(O)C(F)(F)F)[C@@]4(C)CC[C@@H]32)C1` (stereo partly drawn) [Compound 2-4], for which the activation at 10 µM was > 100%.

As to `CCC[C@@](C)(O)CC[C@@H](C)[C@H]1CC[C@H]2[C@@H]3CC=C4C[C@@](C)(O)CC[C@]4(C)[C@H]3CC[C@]12C` [Compound 5-6], the activation at 10 µM lay in the range of 10 to 50%.

With `C=CC(C)(O)CC[C@@H](C)[C@H]1CC[C@H]2[C@@H]3CC=C4C[C@@](C)(O)CC[C@]4(C)[C@H]3CC[C@]12C` (stereo partly drawn) [Compound 10-12], the activation at 10 µM is 10 to 50%.

Take `C[C@H](CC[C@](C)(O)CCO)[C@H]1CC[C@H]2[C@@H]3CC=C4C[C@@](C)(O)CC[C@]4(C)[C@H]3CC[C@]12C` [Compound 10-21]: the activation at 10 µM lay in the range of 10 to 50%.

Regarding `C[C@H](CC(F)(F)[C@H](C)O)[C@H]1CC[C@H]2[C@@H]3CC=C4C[C@@](C)(O)CC[C@]4(C)[C@H]3CC[C@]12C` [Compound 11-15], the activation at 10 µM was 10 to 50%.

Take `CC[C@]1(O)CC[C@@]2(C)C(=CC[C@H]3[C@@H]4CC[C@H]([C@H](C)CC[C@@H](O)C(F)(F)F)[C@@]4(C)CC[C@@H]32)C1` [Compound 2-7]: the activation at 10 µM was > 100%.

As for `C[C@H](CC[C@@](C)(O)C(F)(F)F)[C@H]1CC[C@H]2[C@@H]3CC[C@H]4C[C@@](C)(O)CC[C@]4(C)[C@H]3CC[C@]12C` [Compound 3-7], the activation at 10 µM lay in the range of 10 to 50%.

Turning to `C[C@H](CC[C@@](C)(O)C(F)(F)F)[C@H]1CC[C@H]2[C@@H]3CC=C4C[C@@](C)(O)CC[C@]4(C)[C@H]3CC[C@]12C` [Compound 3-6], the activation at 10 µM lay in the range of 50 to 100%.

Consider `CCC[C@](C)(O)CC[C@@H](C)[C@H]1CC[C@H]2[C@@H]3CC=C4C[C@@](C)(O)CC[C@]4(C)[C@H]3CC[C@]12C` [Compound 5-5], for which the activation at 10 µM lay in the range of 10 to 50%.

In the case of `C[C@H](CCC(C)(O)C(F)(F)F)[C@H]1CC[C@H]2[C@@H]3CC=C4C[C@@](C)(O)CC[C@]4(C)[C@H]3CC[C@]12C` (stereo partly drawn) [Compound 3-2], the activation at 10 µM was > 100%.

`C#C[C@@](C)(O)CC[C@@H](C)[C@H]1CC[C@H]2[C@@H]3CC[C@H]4C[C@@](C)(O)CC[C@]4(C)[C@H]3CC[C@]12C` [Compound 10-9]: the activation at 10 µM was in the range of 10 to 50%.

Take `C[C@H](CC[C@@](C)(O)CCO)[C@H]1CC[C@H]2[C@@H]3CC=C4C[C@@](C)(O)CC[C@]4(C)[C@H]3CC[C@]12C` [Compound 10-20]: the activation at 10 µM fell in the range of 10 to 50%.

For the compound `COCC[C@](C)(O)CC[C@@H](C)[C@H]1CC[C@H]2[C@@H]3CC=C4C[C@@](C)(O)CC[C@]4(C)[C@H]3CC[C@]12C` [Compound 10-22], the activation at 10 µM is 50 to 100%.

Consider `C[C@H](CC(F)(F)[C@@H](C)O)[C@H]1CC[C@H]2[C@@H]3CC=C4C[C@@](C)(O)CC[C@]4(C)[C@H]3CC[C@]12C` [Compound 11-16], for which the activation at 10 µM is 10 to 50%.

Take `C=C[C@@](C)(O)CC[C@@H](C)[C@H]1CC[C@H]2[C@@H]3CC=C4C[C@@](C)(O)CC[C@]4(C)[C@H]3CC[C@]12C` [Compound 10-12B]: the activation at 10 µM was 10 to 50%.

`CC[C@](C)(O)CC[C@@H](C)[C@H]1CC[C@H]2[C@@H]3CC=C4C[C@@](C)(O)CC[C@]4(C)[C@H]3CC[C@]12C` [Compound 4-12]: the activation at 10 µM was 50 to 100%.

Regarding `CC(C)[C@](C)(O)CC[C@@H](C)[C@H]1CC[C@H]2[C@@H]3CC=C4C[C@@](C)(O)CC[C@]4(C)[C@H]3CC[C@]12C` [Compound 8-8], the activation at 10 µM is > 100%.

Regarding `C=CCC(C)(O)CC[C@@H](C)[C@H]1CC[C@H]2[C@@H]3CC[C@H]4C[C@@](C)(O)CC[C@]4(C)[C@H]3CC[C@]12C` (stereo partly drawn) [Compound 6-6], the activation at 10 µM is 50 to 100%.

For `C=CC(C)(O)CC[C@@H](C)[C@H]1CC[C@H]2[C@@H]3CC[C@H]4C[C@@](C)(O)CC[C@]4(C)[C@H]3CC[C@]12C` (stereo partly drawn) [Compound 10-7], the activation at 10 µM was 50 to 100%.

Turning to `CCC[C@@](C)(O)CC[C@@H](C)[C@H]1CC[C@H]2[C@@H]3CC[C@H]4C[C@@](C)(O)CC[C@]4(C)[C@H]3CC[C@]12C` [Compound 5-8], the activation at 10 µM lay within 50 to 100%.

In the case of `C=C[C@@](C)(O)CC[C@@H](C)[C@H]1CC[C@H]2[C@@H]3CC[C@H]4C[C@@](C)(O)CC[C@]4(C)[C@H]3CC[C@]12C` [Compound 10-11], the activation at 10 µM fell in the range of 10 to 50%.

As for `CC[C@]1(O)CC[C@@]2(C)[C@@H](CC[C@@H]3[C@@H]2CC[C@]2(C)[C@@H]([C@H](C)CCC(O)C(F)(F)F)CC[C@@H]32)C1` (stereo partly drawn) [Compound 2-5], the activation at 10 µM fell in the range of 50 to 100%.
